Results reported in US20200017495A1, “NOVEL HETEROCYCLIC COMPOUNDS AND THEIR USE IN PREVENTING OR TREATING BACTERIAL INFECTIONS” (priority 2017, published 2020).
Where “and” joins values, the source holds several entries; their conditions need not be identical. Identical values can stand only once. Like-named read-outs stand apart in the source and are kept apart here.

What was measured:
Assay in all cases: MIC of compounds alone and combined with antibacterials, broth microdilution (CLSI)
Assay type in all cases: cell-based
[1] = system: Klebsiella pneumoniae (KPN) isolates
Method in brief: (§1)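 Broth microdilution in cation-adjusted Mueller-Hinton broth, inoculum 5.10^5 CFU/mL, 16-20 h at 35° C in ambient air, on genotyped isolates. Compound MIC, alone or with an antibacterial, taken visually as lowest concentration preventing growth; antibacterial MIC determined at each compound concentration.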

[2] = system: Morganella morganii (MMO) isolates
Method in brief: as §1

[3] = system: Providencia rettgeri (PRE) isolates
Method in brief: as §1

[4] = system: Serratia marcescens (SMA) isolates
Method in brief: as §1

`CC1(C)S[C@@H]2[C@H](NC(=O)[C@H](N)c3ccc(O)cc3)C(=O)N2[C@H]1C(=O)O` [AMX, Amoxicillin] was tested, and the MIC ([1]; strain KPN UFR24, genotype TEM-1, SHV-2, SHV-11, OXA-1, OXA-48, OXA-47) was >256 µg/mL, the MIC ([1]; strain KPN UFR25, genotype TEM-1, SHV-11, CTX-M-15, OXA-162) was >256 µg/mL and the MIC ([1]; strain KPN UFR27, genotype TEM-1, SHV-28, CTX-M-15, OXA-204) was >256 µg/mL. The MIC ([1]; strain KPN UFR28, genotype TEM-1, SHV-1, CTX-M-15, OXA-1, OXA-232) was >256 µg/mL, the MIC ([1]; strain KPN UFR33, genotype TEM-2, SHV-12, CTX-M-15, OXA-1, OXA-10) was >256 µg/mL and the MIC ([1]; strain KPN UFR42, genotype SHV-2, CTX-M-15 OXA-1, OXA-181, NDM-1) was >256 µg/mL. The MIC ([1]; strain KPN UFR43, genotype SHV-11, CTX-M-15, CMY-2, OXA-1, NDM-1) was >256 µg/mL, the MIC ([1]; strain KPN UFR46, genotype TEM-1, SHV-12, CTX-M-15, OXA-9, VIM-1) was >256 µg/mL and the MIC ([1]; strain KPN UFR53, genotype TEM-1, IMP-1) was >256 µg/mL. For the same compound, the MIC ([1]; strain KPN UFR65, genotype TEM-1, SHV-11, KPC-2) was >256 µg/mL, the MIC ([1]; strain KPN UFR66, genotype TEM-1, SHV-11, CTX-M-15, KPC-2) was >256 µg/mL and the MIC ([1]; strain KPN UFR67, genotype TEM-1, SHV-11, KPC-3) was >256 µg/mL. The MIC ([1]; strain KPN UFR68, genotype TEM-1, SHV-11, CTX-M-15, KPC-3) was >1024 µg/mL, the MIC ([1]; strain KPN UFR76, genotype TEM-155, SHV-11, ACT-1, OXA-2) was >256 µg/mL and the MIC ([1]; strain KPN UFR77, genotype CMY-2) was >256 µg/mL. The MIC ([1]; strain KPN UFR78, genotype TEM-1, SHV-1, CTX-M-15, CMY-2, OXA-1, OXA-48) was >256 µg/mL, the MIC ([1]; strain KPN UFR79, genotype DHA-1, OXA-1) was >256 µg/mL and the MIC ([1]; strain KPN UFR80, genotype SHV-11, DHA-1, OXA-1) was >256 µg/mL. The MIC ([1]; strain KPN UFR81, genotype TEM-1, SHV-1, DHA-1, OXA-48) was >256 µg/mL, the MIC ([1]; strain KPN UFR162, genotype SHV-28, TEM-1, CTX-M-15, OXA-181, OXA-181, NDM-1, antibiotic alone) was >128 µg/mL and the MIC ([1]; strain KPN UFR163, genotype TEM-1, SHV-1, CTX-M-15, OXA-232, OXA-9, NDM-1, qnrB1, qepA, RmtB, antibiotic alone) was >128 µg/mL. The MIC ([1]; strain KPN UFR164, genotype SHV-11, CTX-M-15, OXA-1, OXA-181, NDM-1, antibiotic alone) was >128 µg/mL, the MIC ([1]; strain KPN UFR165, genotype TEM-1, SHV-11, CTX-M-15, OXA-1, OXA-181, NDM-1, antibiotic alone) was >128 µg/mL and the MIC ([1]; strain KPN UFR166, genotype TEM-1, TEM-1, CTX-M-15, OXA-181, OXA-9, NDM-1, antibiotic alone) was >128 µg/mL. The MIC ([1]; strain KPN UFR167, genotype TEM-1, SHV-12, CTX-M-15, OXA-9, NDM-1, antibiotic alone) was >128 µg/mL, the MIC ([1]; strain KPN UFR168, genotype SHV-2, CTX-M-15, OXA-1, OXA-181, NDM-1, ArmA, antibiotic alone) was >128 µg/mL and the MIC ([1]; strain KPN UFR169, genotype TEM-1, SHV-28, CTX-M-15, CMY-4, OXA-1, NDM-1, antibiotic alone) was >128 µg/mL. For the same compound, the MIC ([1]; strain KPN UFR170, genotype TEM-1, SHV-28, CTX-M-15, CMY-6, OXA-1, OXA-9, NDM-1, antibiotic alone) was >128 µg/mL, the MIC ([1]; strain KPN UFR171, genotype TEM-1, SHV-28, CTX-M-15, OXA-1, OXA-10, NDM-1, RmtA, antibiotic alone) was >128 µg/mL and the MIC ([1]; strain KPN UFR172, genotype SHV-38, CMY-16, OXA-10, NDM-1, antibiotic alone) was >128 µg/mL. For the same compound, the MIC ([1]; strain KPN UFR215, genotype SHV-27, CTX-M-15) was >128 µg/mL, the MIC ([1]; strain KPN UFR216, genotype SHV-28, CTX-M-15) was >128 µg/mL and the MIC ([1]; strain KPN UFR217, genotype TEM-1, SHV-1, CTX-M-15) was >128 µg/mL. The MIC ([1]; strain KPN UFR219, genotype SHV-12, CTX-M-15) was >128 µg/mL, the MIC ([1]; strain KPN UFR220, genotype TEM-1, SHV-12, DHA-1) was >128 µg/mL and the MIC ([1]; strain KPN UFR221, genotype TEM-1, SHV-11, CTX-M-14, DHA-1) was >128 µg/mL. For the same compound, the MIC ([1]; strain KPN UFR229O, genotype SHV-12, VIM-1, antibiotic alone) was >128 µg/mL, the MIC [2] was >128 µg/mL and the “MIC ATB in combination” value [2] was >128 µg/mL. The MIC ([2]; strain MMO 200321, genotype TEM-1, CTX-M-15, OXA-1) was >256 µg/mL, the MIC ([2]; strain MMO UFR144, genotype TEM-1, CTX-M-15) was >128 µg/mL and the MIC ([2]; strain MMO UFR240, genotype CTX-M-9) was >128 µg/mL. The MIC ([2]; strain MMO UFR241, genotype TEM-1, CTX-M-15) was >128 µg/mL, the MIC ([2]; strain MMO UFR242, genotype TEM-52) was >128 µg/mL and the “MIC ATB in combination” value [3] was >128 µg/mL. For the same compound, the MIC ([3]; strain PRE UFR96, genotype CTX-M-15, NDM-1) was >128 µg/mL, the MIC ([3]; strain PRE UFR97, genotype TEM-1, NDM-1) was >128 µg/mL and the MIC ([3]; strain PRE UFR99, genotype OXA-1, OXA-181) was >128 µg/mL. For the same compound, the MIC ([3]; strain PRE UFR236, genotype TEM-1, OXA-48) was >128 µg/mL, the MIC [4] was >128 µg/mL and the “MIC ATB in combination” value [4] was >128 µg/mL and 128 µg/mL. For the same compound, the “MIC ATB in combination” value ([4]; SMA UFR30, AF2 @ 8 μg/mL) was 64 µg/mL, the “MIC ATB in combination” value ([4]; SMA UFR239, CLA @ 4 μg/mL) was 64 µg/mL and the MIC ([4]; strain SMA UFR30, genotype OXA-405) was >256 µg/mL. For the same compound, the MIC ([4]; strain SMA UFR134, genotype TEM-1, BES-1) was >128 µg/mL, the MIC ([4]; strain SMA UFR135, genotype TEM-1, KPC-2) was >128 µg/mL and the MIC ([4]; strain SMA UFR136, genotype TEM-1, SHV-12, KPC-2) was >128 µg/mL. The MIC ([4]; strain SMA UFR140, genotype IMP-1) was >128 µg/mL, the MIC ([4]; strain SMA UFR141, genotype OXA-48) was >128 µg/mL and the MIC ([4]; strain SMA UFR142, genotype OXA-48) was >128 µg/mL. For the same compound, the MIC ([4]; strain SMA UFR143, genotype CTX-M-15, OXA-1, OXA-48) was >128 µg/mL and the MIC ([4]; strain SMA UFR238, genotype OXA-48) was >128 µg/mL.
